{"source": "paper PMC10970734", "about": "“Identification of an Intravenous Injectable NK1 Receptor Antagonist for Use in Traumatic Brain Injury” (International Journal of Molecular Sciences, 2024)", "key": {"[1]": {"set-up": "method as in PMID 20795794", "settings": "parent drug; cited from earlier work"}, "[2]": {"system": "NK1R", "settings": "cited from earlier work"}, "[3]": {"system": "rodent model of TBI", "experiment": "Cognitive function after TBI, Barnes maze", "format": "in vivo, Sprague Dawley rats", "settings": "rat TBI, 10 mg/kg 30 min post-injury, 10 days", "experimental": "Cognitive outcome was assessed using the Barnes maze in order to reduce the potential confounding effects that may be associated with tests such as the Morris water maze. In the Barnes maze, animals were placed under a cover in the centre of an elevated 1.2 m diameter board containing 19 holes around the periphery. One hole contained the entrance to a darkened escape tunnel that was not visible from the surface, relying on the animal to use surrounding visual cues to locate the tunnel. The time, in seconds, for the animal to locate and enter the escape tunnel was recorded. Following pre-training, the effect of injury, and post-injury treatment, on the time taken for the animal to locate the tunnel was measured (Figure 7). […]\nInjury was induced in halothane-anesthetized (ProVet) male Sprague Dawley rats (400 ± 20 g) using acceleration-induced impact TBI [29, 93]. […] Blood pressure was monitored, both before and after injury, using a femoral arterial line. […]\nMotor and cognitive outcomes in animals (n = 6 per group) were assessed using the rotarod and Barnes maze, respectively, as described in detail elsewhere. […] The rotational speed of the device was increased from 0 to 30 r.p.m. and the duration (in seconds) when the animals either completed the task, fell from the rods, or gripped the rods and spun for two consecutive revolutions rather than walking actively was recorded as the rotarod score. […]"}, "[4]": {"system": "rodent model of TBI", "experiment": "Mortality after severe impact-acceleration TBI", "format": "in vivo, Sprague Dawley rats", "settings": "rat severe TBI, 10 mg/kg 30 min after injury", "experimental": "Injury was induced using an impact-acceleration model of TBI which generates a rodent form of diffuse axonal injury, a major feature of clinical head injury. The level of injury induced in these studies was classified as “severe” [60]. In terms of assessing treatment effects, the study was performed in a blinded manner. […] In line with the “severe” nature of the injury, significant mortality rates were observed within the cohort of injured animals. However, the mortality rates varied between the treatment groups. In the “drug vehicle” group, a mortality rate of 30% was observed, which is in line with the nature of the injury.\nInjury was induced in halothane-anesthetized (ProVet) male Sprague Dawley rats (400 ± 20 g) using acceleration-induced impact TBI [29, 93]. This model involves impacting a 10 mm diameter, 3 mm thick stainless steel disc fixed centrally to the exposed skull between the lambda and bregma with an accelerating impactor. The impactor was a 450 g brass weight dropped from a height of 2 m. Earlier studies have shown that the impact acceleration injury produces diffuse axonal injury, oedema, BBB opening, Mg^2+ decline, and moderate-to-severe neurologic deficits. All animals were fed and watered ad libitum before the induction of injury. […] Blood pressure was monitored, both before and after injury, using a femoral arterial line. […]"}, "[5]": {"system": "rodent model of TBI", "experiment": "Motor function after TBI, rotarod test", "format": "in vivo, Sprague Dawley rats", "settings": "rat TBI, 10 mg/kg 30 min post-injury", "source_text": "The maximum duration of the task was 120 s.\nInjury was induced in halothane-anesthetized (ProVet) male Sprague Dawley rats (400 ± 20 g) using acceleration-induced impact TBI [29, 93]. This model involves impacting a 10 mm diameter, 3 mm thick stainless steel disc fixed centrally to the exposed skull between the lambda and bregma with an accelerating impactor. The impactor was a 450 g brass weight dropped from a height of 2 m. […] All animals were fed and watered ad libitum before the induction of injury. During both surgery and the immediate recovery phase, rat rectal temperature was maintained using a thermostatically controlled heating pad. Immediately after injury, animals were manually ventilated until stable respiration was restored, usually in <5 min. After injury, all wounds were sutured. Blood pressure was monitored, both before and after injury, using a femoral arterial line.\nMotor and cognitive outcomes in animals (n = 6 per group) were assessed using the rotarod and Barnes maze, respectively, as described in detail elsewhere [64]. The rotarod consists of a motorized rotating assembly of 18 rods (1 mm in diameter) upon which the animals were placed. The rotational speed of the device was increased from 0 to 30 r.p.m. and the duration (in seconds) when the animals either completed the task, fell from the rods, or gripped the rods and spun for two consecutive revolutions rather than walking actively was recorded as the rotarod score. […] After activating the bright lights and aversive auditory stimulus, the latency (in seconds) for the animal to locate and enter the escape tunnel was recorded. All animals were pretrained on both functional outcome tests twice per day over 5 days before injury to establish a normal, uninjured baseline."}, "[6]": {"set-up": "method as in PMID 20795794, PMID 18042005", "settings": "slow infusion 20-30 min; cited from earlier work"}}, "data": [{"molecule": "C[C@@H](O[C@H]1OCCN(Cc2n[nH]c(=O)[nH]2)[C@H]1c1ccc(F)cc1)c1cc(C(F)(F)F)cc(C(F)(F)F)c1", "note": "[aprepitant]", "values": [{"measurement": "Aqueous solubility", "setting": "[1]", "result": 0.2, "unit": "µg/mL"}]}, {"molecule": "CC(=O)N[C@@H](Cc1c[nH]c2ccccc12)C(=O)O", "note": "[NAT, N-acetyl-L-tryptophan]", "values": [{"measurement": "NK1R binding", "setting": "[2]", "result": "lack of NK1R binding"}]}, {"molecule": "C[C@]12N[C@H](Cc3ccccc31)c1ccccc12", "note": "[MK801]", "values": [{"measurement": "Cognitive function, Barnes maze time to locate escape tunnel", "setting": "[3]", "result": "performance returning close to pre-injury by the end of the study period"}, {"measurement": "Mortality rate", "setting": "[4]", "result": 48, "unit": "%"}, {"measurement": "Motor function, rotarod score", "setting": "[5]; 10 days", "result": "did not provide any beneficial outcome relative to the drug vehicle"}, {"measurement": "Recovery of motor function over the 10-day test period", "setting": "[5]; rotarod", "result": "approximately 50%"}]}, {"molecule": "C[C@@H](O[C@H]1OCCN(Cc2nc(O)n(P(=O)(O)O)n2)[C@H]1c1ccc(F)cc1)c1cc(C(F)(F)F)cc(C(F)(F)F)c1", "note": "[Fosaprepitant, fosaprepitant]", "values": [{"measurement": "Time to conversion to aprepitant after end of infusion", "setting": "[6]", "result": "≤ 30", "unit": "min"}]}]}
